# According to patent publication US20250275982A1, “SOLID FORM FORMULATION COMPRISING CHROMIUM OR COPPER OR A VITAMIN, COMPOSITIONS AND USES THEREOF” (ALESCO S.R.L., priority 2019, published 2025):
# Structures can show the parent of a compound that is named as a salt.
# How the values were obtained:
# Format in all cases: cell-based
# [1] = tested on: differentiated mouse myoblasts; experiment: Glucose uptake study: intracellular glucose colorimetric assay in insulin-treated differentiated mouse myoblasts
# Excerpt: (§1) In vitro efficacy study: evaluation of the modulation of the carbohydrate metabolism by two compositions comprising a chromium salt (Composition 1 and Composition 2) in a culture of differentiated mouse myoblasts.
# (§2) The following endpoints were considered:—glucose uptake, by means of intracellular glucose assay; • expression of GLUT-4, insulin-sensitive glucose transporter; and • ATP content, the primary source of energy for cellular biochemical reactions.
# (§3) The experimental model used in this study is differentiated mouse myoblasts (ATCC Number: CRL-1772, lot 70013341), cultured in Dulbecco's Modified Eagle's Medium (DMEM) supplemented with 10% foetal bovine serum at 37° C., 5% CO2. The formation of myotubes is induced by adding horse serum.
# (§4) The experimental protocol provided for: • Untreated control cells (CTR-); • Insulin-treated control cells (100 nM); • Insulin-treated cells and the Compounds in question (Composition 1 and Composition 2); • Insulin-treated cells and the reference Compound (metformin).
# (§5) Three concentrations of each composition under study (Composition 1 and 2) were tested: 500 μM, 100 µM and 50 μM (Cr). The preparation of the samples involved the use of DMSO as solvent.
# (§6) The reference Compound (metformin hydrochloride) was tested at 2000 μm. • The treatment of the cells with Composition 1 and 2 and reference Composition extended for 24 hours.
# (§7) The cultures were then treated with insulin (100 nM) for 4 hours. A source of glucose was added to the media in the glucose uptake evaluation study. The treatments were conducted in quadruplicate.
# (§8) At the end of the treatments the cells were lysed to obtain a cell homogenate on which it was assayed: • glucose, by means of colorimetric assay; • ATP, by means of colorimetric assay; • GLUT-4, by means of ELISA technique.
# (§9) Commercially available colorimetric and ELISA kits were used.
# (§10) The colorimetric kits use a specific probe, a mixture of reaction enzymes and a curve with known amounts of each standard.
# (§11) The data obtained in the experimental groups treated with the samples subject of the study were subjected to statistical analysis and compared with each other and with insulin according to the t-test. Variations are considered significant for p<0.05.
# (§12) Glucose assay: the results (Table 2 and FIG. 1) are expressed as mean content±st.dev. (expressed in nanomoles) and as a mean % variation with respect to treatment with insulin. Statistically significant data with respect to insulin are reported with *, while ^∘ indicates differences between tested compounds.
# GLUT-4 = GLUT-4 study: ELISA of GLUT-4 in cell homogenate of insulin-treated differentiated mouse myoblasts
# Excerpt: as §1, §2, §3, §4, §5, §6, §7, §8, §9
# ELISA kits exploit the competitive binding of an antigen (in this case GLUT-4) with its primary antibody. The immune complex (antigen-antibody) is in turn recognised by a secondary antibody conjugated to a peroxidase. The addition of the peroxidase substrate produces a colorimetric reaction with intensity proportional to the amount of immune complexes present and thus to the amount of bound target molecule. Quantitative determination exploits a calibration curve constructed with known and increasing concentrations of standard marker.
# as §11
# as §12, with “GLUT-4” for “Glucose”, “3” for “2”, “2)” for “1)”, “μg/L)” for “nanomoles)”
# [2] = tested on: differentiated mouse myoblasts; experiment: ATP study: colorimetric assay of ATP content in insulin-treated differentiated mouse myoblasts
# Excerpt: as §1, §2, §3, §4, §5, §6, §7, §8, §9, §10, §11
# as §12, with “ATP” for “Glucose”, “4” for “2”, “3)” for “1)”
# [3] = 2000 um for 24 hours + insulin 100 nM for 4 hours
# [4] = insulin 100 nM for 4 hours, insulin-treated control cells
# [5] = 50 μM (Cr) for 24 hours + insulin 100 nM for 4 hours
# [6] = 100 μM (Cr) for 24 hours + insulin 100 nM for 4 hours
# [7] = 500 μM (Cr) for 24 hours + insulin 100 nM for 4 hours
# [8] = at 500 µM and 100 µM, significance vs. insulin p<0.05
compound,measurement,setting,value
"CN(C)C(=N)N=C(N)N [Metformin, metformin hydrochloride]",% var. vs. insulin (glucose assay),[1]; 2000 um + insulin,24.6%
same,"mean value (glucose assay, mean content)",[1]; [3],11.73 nmol
same,% var. vs. insulin (GLUT-4 assay),GLUT-4; 2000 um + insulin,28.0%
same,"mean value (GLUT-4 assay, mean content)",GLUT-4; [3],6.71 µg/L
same,% var. vs. insulin (ATP assay),[2]; 2000 um + insulin,17.6%
same,"mean value (ATP assay, mean content)",[2]; [3],4.61 nmol
Insulin: insulin (100 nM) used to treat control cells and all treated cultures,"mean value (glucose assay, mean content)",[1]; [4],9.42 nmol
same,"mean value (GLUT-4 assay, mean content)",GLUT-4; [4],5.24 µg/L
same,"mean value (ATP assay, mean content)",[2]; [4],3.92 nmol
chromium (III) picolinate [CR picolinate],"mean value (glucose assay, mean content)",[1]; [5],10.24 nmol
same,% var. vs. insulin (glucose assay),[1]; 50 μM + insulin,8.7%
same,"mean value (glucose assay, mean content)",[1]; [6],11.08 nmol
same,% var. vs. insulin (glucose assay),[1]; 100 μM + insulin,17.6%
same,"mean value (glucose assay, mean content)",[1]; [7],11.24 nmol
same,% var. vs. insulin (glucose assay),[1]; 500 μM + insulin,19.3%
same,"glucose uptake, behaviour over the three concentrations, in words","[1]; 500, 100 and 50 μM",showed a dose-dependent behaviour
same,"insulin-dependent glucose uptake, result in words",[1]; [8],effective in significantly increasing insulin-dependent glucose uptake
same,"mean value (GLUT-4 assay, mean content)",GLUT-4; [5],5.60 µg/L
same,% var. vs. insulin (GLUT-4 assay),GLUT-4; 50 μM + insulin,6.8%
same,"mean value (GLUT-4 assay, mean content)",GLUT-4; [6],6.35 µg/L
same,% var. vs. insulin (GLUT-4 assay),GLUT-4; 100 μM + insulin,21.1%
same,"mean value (GLUT-4 assay, mean content)",GLUT-4; [7],6.50 µg/L
same,% var. vs. insulin (GLUT-4 assay),GLUT-4; 500 μM + insulin,24.0%
same,"GLUT-4 levels, behaviour over the three concentrations, in words","GLUT-4; 500, 100 and 50 μM",showed a dose-dependent behaviour
same,"levels of GLUT-4 carrier, result in words",GLUT-4; [8],effective in significantly increasing the levels of GLUT-4 carrier
same,"mean value (ATP assay, mean content)",[2]; [5],4.09 nmol
same,% var. vs. insulin (ATP assay),[2]; 50 μM + insulin,4.3%
same,"mean value (ATP assay, mean content)",[2]; [6],4.78 nmol
same,% var. vs. insulin (ATP assay),[2]; 100 μM + insulin,22.1%
same,"mean value (ATP assay, mean content)",[2]; [7],5.35 nmol
same,% var. vs. insulin (ATP assay),[2]; 500 μM + insulin,36.5%
same,"intracellular ATP, behaviour over the three concentrations, in words","[2]; 500, 100 and 50 μM",showed a dose-dependent behaviour
same,"intracellular ATP, statistical comparison between the compositions, in words",[2]; at 50 μM,does not show performance differences
same,"levels of intracellular ATP, result in words",[2]; [8],effective in significantly increasing the levels of intracellular ATP
